The test concerns the target T1, MAGL protein (Homo sapiens, UniProt Q99685).
T1 sequence (Q99685 1-303): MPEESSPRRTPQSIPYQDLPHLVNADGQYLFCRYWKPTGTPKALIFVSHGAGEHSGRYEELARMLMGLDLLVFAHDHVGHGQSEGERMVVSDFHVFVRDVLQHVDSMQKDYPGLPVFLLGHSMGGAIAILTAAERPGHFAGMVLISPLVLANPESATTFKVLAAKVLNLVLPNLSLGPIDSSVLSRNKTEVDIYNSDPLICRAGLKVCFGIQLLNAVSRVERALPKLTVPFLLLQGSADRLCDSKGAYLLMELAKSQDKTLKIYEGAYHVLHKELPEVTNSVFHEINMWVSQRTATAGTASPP
Briefly: 2-AG assay: MAGL inhibitory activity by hydrolysis of 2-arachidonoylglycerol to arachidonic acid, followed by mass spectrometry. In kind it is biochemical. As to conditions: 8 μM 2-arachidonoylglycerol, 15 min preincubation, 30 min reaction at RT, RapidFire MS readout. The method, boiled down:
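MAGL was preincubated 15 min at RT with compound (12.5 to […], 3-fold steps) in 50 mM TRIS, 1 mM EDTA, 0.01% Tween-20, 2.5% DMSO. The reaction ran 30 min at RT with 8 μM 2-AG. Arachidonic acid was quantified by RapidFire SPE-MS/MS against a d8-arachidonic acid internal standard.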

SMILES strings stand for the structures.

A word on the IC50: it is the concentration that inhibits the measured activity by half. A low value points to inhibition by little substance. In turn, `O=C(N1CC2(CC(c3nnc(C4CC4)[nH]3)C2)C1)N1CC(O)(c2ccc(N3CC(C(F)(F)F)C3)cc2)C1` [Example 306, [6-(5-Cyclopropyl-4H-1,2,4-triazol-3 yl)-2-azaspiro[3.3]heptan-2-yl]-[3-hydroxy-3-[4-[3-(trifluoromethyl)azetidin-1-yl]phenyl]azetidin-1 yl)methanone] gave an IC50 of 2.19 nM.

For the compound `O=C(N1CC2(CC(c3nnc(C4CC4)[nH]3)C2)C1)N1CC2(C1)CN(S(=O)(=O)C13CC(C(F)(F)F)(C1)C3)C2` [compound 135], inhibition was half-maximal at 25.3 nM (IC50).

The compound `N#Cc1ncc(CC2CC3(C2)CN(C(=O)N2CC4(CC(c5nc(C6(F)CC6)n[nH]5)C4)C2)C3)cc1C(F)(F)F` [compound 512] registered a half-inhibitory concentration (IC50) of 0.67 nM.

As for `COc1cc(COC2CCN(C(=O)N3CC4(CC(c5nc(C6CC6)n[nH]5)C4)C3)CC2)ccc1C(N)=O` [Example 980, 4-[[1-[6-(3-cyclopropyl-1H-1,2,4-triazol-5-yl)-2-azaspiro[3.3]heptane-2-carbonyl]-4-piperidyl]oxymethyl]-2-methoxy-benzamide], it took 2520 nM to reach half-maximal inhibition (IC50).

In the case of `CP(C)(=O)c1ccc(CC2CC3(C2)CN(C(=O)N2CC4(CC(c5nc(C6CC6)n[nH]5)C4)C2)C3)c(F)c1` [compound 462], it took 3.09 nM to reach half-maximal inhibition (IC50).

Take `O=C(N1CC2(CC(c3nnc(C4CC4)[nH]3)C2)C1)N1CC2(C1)CN(S(=O)(=O)c1ccc(F)cc1F)C2` [compound 105]: the IC50 was 21.3 nM.

Compound `O=C(N1CC2(CC(CNC3(C(F)(F)F)CC3)C2)C1)N1CC2(CC(c3ncn[nH]3)C2)C1` [compound 983] displayed an IC50 of 2180 nM.

As to `O=C(N1CC(C23CC(c4cc(C5CC5)n[nH]4)(C2)C3)C1)N1CC2(CC(c3nc(C4CC(F)(F)C4)n[nH]3)C2)C1` [compound 702], the IC50 stood at 255 nM.

In the case of `O=C(N1CC(OCC2CC3C(C2)C3(F)F)C1)N1CC2(CC(c3nnc(C4CC4)[nH]3)C2)C1` (centres unmarked) [compound 327], 24.9 nM corresponded to half-maximal inhibition (IC50).

For `O=C(N1CC2(CC(c3nc(C4CC4)n[nH]3)C2)C1)N1CC2(CN(Cc3cnc(C(F)(F)F)o3)C2)C1` [compound 642], the IC50 is 27.5 nM.

Compound `O=C(N1CC2(CC(Cc3nc(C(F)(F)F)cs3)C2)C1)N1CC2(CC(c3nc(C4CC(F)(F)C4)n[nH]3)C2)C1` [compound 489] registered an IC50 of 75.3 nM.

For the compound `Cc1ncsc1CN1CCN(C(=O)N2CC3(CC(c4nc(C5CC5)n[nH]4)C3)C2)CC1` [Example 880, [6-(3-cyclopropyl-1H-1,2,4-triazol-5-yl)-2-azaspiro[3.3]heptan-2-yl]-[4-[(4-methylthiazol-5-yl)methyl]piperazino]methanone], it took 832 nM to reach half-maximal inhibition (IC50).

`O=C(N1CC2(CC(c3nnc(C4CC4)[nH]3)C2)C1)N1CC2(C1)CN(S(=O)(=O)c1ccc(OC(F)(F)F)cc1)C2` [compound 91]: half-maximal inhibition (IC50) was put at 4.05 nM.

`O=C(N1CC(c2cnc(OCC3(C(F)(F)F)CC3)cn2)C1)N1CC2(CC(c3nc(C4(F)CC4)n[nH]3)C2)C1` [compound 431] registered an IC50 of 0.39 nM.

For the compound `O=C(N1CC2(CC(c3nc(C4CC4)n[nH]3)C2)C1)N1CC2(CC[C@H](Cc3cccc(S(=O)(=O)C(F)(F)F)c3)C2)C1` [compound 594], it took 0.02 nM to reach half-maximal inhibition (IC50).

Compound `O=C(N1CC2(CC(c3nnc(C4CC4)[nH]3)C2)C1)N1CC2(CN(Cc3nc(-c4ccccc4)no3)C2)C1` [compound 888] returned an IC50 of 2.85 nM.

In turn, `O=C(N1CC(C23CC(Oc4cnc(C(F)(F)F)cn4)(C2)C3)C1)N1CC2(CC(c3nc(C4CC4)n[nH]3)C2)C1` [compound 707] yielded an IC50 of 2.44 nM.

On to `CS(=O)(=O)c1ccc(CC2CC3(C2)CN(C(=O)N2CC4(CC(c5nnc(C6CCC6)[nH]5)C4)C2)C3)cc1` [compound 14], for which it took 14.8 nM to reach half-maximal inhibition (IC50).

Regarding `Cc1cc(C)n(C23CC(C4CN(C(=O)N5CC6(CC(c7nc(C8CC8)n[nH]7)C6)C5)C4)(C2)C3)n1` [compound 725], the IC50 was 46.6 nM.

`O=C(N1CCC(C23CC(c4nnc(C5(C(F)(F)F)CC5)o4)(C2)C3)CC1)N1CC2(CC(c3nc(C4CC4)n[nH]3)C2)C1` [compound 418] had an IC50 of 192 nM.

The compound `O=C(N1CC2(CCC(Cc3ccc(OC(F)F)nc3)CC2)C1)N1CC2(CC(c3nnc(C4(O)CC4)[nH]3)C2)C1` [compound 146] yielded an IC50 of 9.79 nM.

As to `CC(C)(C)Cc1nnc(C23CC(C4CN(C(=O)N5CC6(CC(c7nc(C8CC(F)(F)C8)n[nH]7)C6)C5)C4)(C2)C3)s1` [compound 583], the IC50 was determined as 295 nM.

For `N=[S@@](=O)(c1ccc(CC2CC3(C2)CN(C(=O)N2CC4(CC(c5nnc(C6CC6)[nH]5)C4)C2)C3)cc1)C(F)(F)F` (single isomer, unassigned) [compound 128], half-maximal inhibition (IC50) required 0.16 nM.

In the case of `O=C(N1CC2(CC(c3nnc(C4CC4)[nH]3)C2)C1)N1CC2(C1)CN(S(=O)(=O)c1ccc(F)c(F)c1)C2` [compound 106], the IC50 is 20.6 nM.

As for `N#CC1(c2ccc(C3CN(C(=O)N4CC5(CC(c6nnc(C7CC7)[nH]6)C5)C4)C3)cc2)CC1` [compound 376], the half-inhibitory concentration (IC50) was found to be 2.22 nM.

Turning to `Cn1nc(CC2CC3(C2)CN(C(=O)N2CC4(CC(c5nc(C6CC6)n[nH]5)C4)C2)C3)cc1C(F)(F)F` [compound 506], it took 0.12 nM to reach half-maximal inhibition (IC50).

`O=C(N1CC2(CC(Cc3ccc(F)cc3F)C2)C1)N1CC2(CC(c3nnc(C4(O)CC4)[nH]3)C2)C1` [compound 36]: the IC50 stood at 0.05 nM.

In turn, `N#Cc1cc(CC2CC3(C2)CN(C(=O)N2CC4(CC(c5nc(C6(F)CC6)n[nH]5)C4)C2)C3)ccc1C(F)(F)F` [compound 585] returned a concentration for half-maximal inhibition (IC50) of 0.06 nM.

With `O=C(N1CC2(CC(Cc3ccc(F)cc3C(F)(F)F)C2)C1)N1CC2(CC(c3nc(C4COC4)n[nH]3)C2)C1` [compound 754], the IC50 was found to be 0.43 nM.

Take `O=C(N1CC2(CC(Cc3ncc(C(F)(F)F)cn3)C2)C1)N1CC2(CC(c3nc(C4(F)CC4)n[nH]3)C2)C1` [compound 647]: 0.97 nM corresponded to half-maximal inhibition (IC50).

Compound `O=C(N1CC(c2cnc(C3(C(F)(F)F)CC3)cn2)C1)N1CC2(CC(c3nnc(C4CC4)[nH]3)C2)C1` [compound 233] yielded an IC50 of 13.8 nM.

`O=C(N1CC2(CCC(Cc3ccc(F)cn3)CC2)C1)N1CC2(CC(c3nnc(C4CC4)[nH]3)C2)C1` [compound 144] registered an IC50 of 0.63 nM.

For the compound `O=C(N1CC2(CC(c3nc(C4(O)CC4)n[nH]3)C2)C1)N1CC2(CCN(Cc3ccc(S(=O)(=O)C(F)(F)F)cc3)C2)C1` [compound 714], the IC50 is 30 nM.

Regarding `CS(=O)(=O)c1ccc(CC2CC3(C2)CN(C(=O)N2CC4(CC(c5nc(C6CC(F)(F)C6)n[nH]5)C4)C2)C3)nc1` [compound 977], half-maximal inhibition (IC50) required 2580 nM.

In the case of `O=C(N1CC2(CC(c3nc(C4CC(F)(F)C4)n[nH]3)C2)C1)N1CC2(CN(Cc3cc(C(F)(F)F)no3)C2)C1` [compound 758], the IC50 came to 145 nM.

`O=C(N1CC2(CC(c3nnc(C4CC4)[nH]3)C2)C1)N1CC2(CN(Cc3cnc(C(F)(F)F)nc3)C2)C1` [compound 162] gave an IC50 of 32.7 nM.

Compound `N#Cc1cc(OC2CC3(C2)CN(C(=O)N2CC4(CC(c5nc(C6CC6)n[nH]5)C4)C2)C3)ccc1C(F)(F)F` [compound 499] came in with an IC50 of 3.46 nM.

Compound `O=C(N1CC(Oc2ccc(C3CC3)cc2)C1)N1CC2(CC(c3nnc(C4(O)CC4)[nH]3)C2)C1` [compound 312] displayed an IC50 of 2.97 nM.

Compound `O=C(N1CC2(CC(Cc3ccc4c(C(F)(F)F)n[nH]c4c3)C2)C1)N1CC2(CC(c3nc(C4CC4)n[nH]3)C2)C1` [compound 989] had an IC50 of 0.05 nM.

`O=C(N1CC2(CCN(Cc3cc(C(F)(F)F)sn3)CC2)C1)N1CC2(CC(c3nc(C4CC4)n[nH]3)C2)C1` [compound 432]: the IC50 stood at 3.45 nM.

For `NS(=O)(=O)c1ccccc1CN1CC2(C1)CN(C(=O)N1CC3(CC(c4nnc(C5CC5)[nH]4)C3)C1)C2` [compound 170], the IC50 was determined as 28.1 nM.

With `O=C(N1CC2(CC(c3nnc(C4(O)CC4)[nH]3)C2)C1)N1CC2(C1)CN(S(=O)(=O)c1ccccc1C(F)(F)F)C2` [compound 97], the IC50 amounted to 27.9 nM.

Turning to `O=C(N1CC2(CC(Cn3cc(C(F)(F)F)cn3)C2)C1)N1CC2(CC(c3nc(C4(F)CC4)n[nH]3)C2)C1` [compound 523], half-maximal inhibition (IC50) was put at 0.53 nM.

With `CS(=O)(=O)c1ccc(CC2CCC3(C2)CN(C(=O)N2CC4(CC(c5nnc(C6CC6)[nH]5)C4)C2)C3)cc1` (centres unmarked) [compound 77], inhibition was half-maximal at 0.69 nM (IC50).

Take `Cc1cc([C@H](C)C2CC3(C2)CN(C(=O)N2CC4(CC(c5nc(C6CC6)n[nH]5)C4)C2)C3)ncc1C(F)(F)F` [compound 967]: the IC50 was found to be 0.18 nM.

`O=C(N1CC2(CC(Cn3cc(OC(F)F)ccc3=O)C2)C1)N1CC2(CC(c3nc(C4CC4)n[nH]3)C2)C1` [compound 724] showed an IC50 of 3.8 nM.

`O=C(N1CC2(CC(Cc3cn4cc(C(F)(F)F)nc4cn3)C2)C1)N1CC2(CC(c3nc(C4CC4)n[nH]3)C2)C1` [compound 991] yielded an IC50 of 2.03 nM.

`Cc1nc(C)n(-c2ccc(C3CN(C(=O)N4CC5(CC(c6nnc(C7CC7)[nH]6)C5)C4)C3)cc2)n1` [compound 841] yielded an IC50 of 10.6 nM.

With `Cn1ncc(CC2CC3(C2)CN(C(=O)N2CC4(CC(c5nc(C6(F)CC6)n[nH]5)C4)C2)C3)c1C(F)(F)F` [compound 475], half-maximal inhibition (IC50) required 0.08 nM.

Turning to `CS(=O)(=O)c1cc(C(F)(F)F)ccc1OCC1CCN(C(=O)N2CC3(CC(c4nc(C5CC5)n[nH]4)C3)C2)CC1` [Example 915, [6-(3-cyclopropyl-1H-1,2,4-triazol-5-yl)-2-azaspiro[3.3]heptan-2-yl]-[4-[[2-mesyl-4-(trifluoromethyl)phenoxy]methyl]piperidino]methanone], 241 nM corresponded to half-maximal inhibition (IC50).

For the origin of these results see US20250099448A1, “HETEROCYCLIC COMPOUNDS” (Hoffmann-La Roche Inc., priority 2022, published 2025).
